Several values for one entry are separate records, joined by “and”; a condition that tells them apart may be missing. Equal values may be shown once.
B1: ERLBD: partial sequence containing the ligand binding domain of human estrogen receptor-α (Ala288-Arg555) (protein, UniProt P03372 288-555, looked up, fragment)
chain: AANLWPSPLMIKRSKKNSLALSLTADQMVSALLDAEPPILYSEYDPTRPFSEASMMGLLTNLADRELVHMINWAKRVPGFVDLTLHDQVHLLECAWLEILMIGLVWRSMEHPGKLLFAPNLLLDRNQGKCVEGMVEIFDMLLATSSRFRMMNLQGEEFVCLKSIILLNSGVYTFLSSTLKSLEEKDHIHRVLDKITDTLIHLMAKAGLTLQQQHQRLAQLLLILSHIRHMSNKGMEHLYSMKCKNVVPLYDLLLEMLDAHRLHAPTSR
B2: ERLBD #111: lot of purified ERLBD (protein, UniProt P03372 288-555, looked up, fragment)
chain: B1 chain
B3: ERLBD #112: lot of purified ERLBD (protein, UniProt P03372 288-555, looked up, fragment)
chain: B1 chain
B4: ERLBD #113: lot of purified ERLBD (protein, UniProt P03372 288-555, looked up, fragment)
chain: B1 chain
B5: ERLBD #110: lot of purified ERLBD (protein, UniProt P03372 288-555, looked up, fragment)
chain: B1 chain

Legend:
[1] = target: T1, Recombinant human Vitamin D3 receptor (VDR) (Homo sapiens, UniProt P11473); assay: Inhibition of binding of immobilized ED-533 to VDR (SPR, BIACORE 3000); details: VDR 100 nM; for inhibitory activity compared with 1,25(OH)2 vitamin D3 (in words): compound 0, 10, 100 or 1000 nM, FIG. 7; for IC50: test compound 0-1000 nM, 1 hr room temperature, 5% DMSO
T1 construct: purchased Pan Vera Corp
T1 sequence (P11473 1-427): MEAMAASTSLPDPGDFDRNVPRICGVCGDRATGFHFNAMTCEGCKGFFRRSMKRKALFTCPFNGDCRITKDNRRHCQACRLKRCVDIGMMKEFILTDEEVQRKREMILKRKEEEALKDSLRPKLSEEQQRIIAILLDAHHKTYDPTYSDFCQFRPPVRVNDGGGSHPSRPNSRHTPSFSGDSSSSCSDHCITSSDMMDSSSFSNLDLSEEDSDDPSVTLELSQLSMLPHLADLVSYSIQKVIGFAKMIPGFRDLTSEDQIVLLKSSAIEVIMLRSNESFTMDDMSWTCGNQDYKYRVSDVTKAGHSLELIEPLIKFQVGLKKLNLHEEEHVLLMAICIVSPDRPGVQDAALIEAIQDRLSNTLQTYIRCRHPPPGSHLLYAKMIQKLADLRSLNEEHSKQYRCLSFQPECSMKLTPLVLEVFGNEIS
Experimental: HBS-EP containing 5% DMSO was used as a running buffer, and the flow rate was set at 5 μl/min. Carboxyl groups of carboxymethyl dextran on the Sensor Chip CM5 were activated by injecting 100 μl of 0.05 M N-hydroxysuccinimide (NHS)/0.2 M N-ethyl-N′-(3-dimethyl aminopropyl)carbodiimide (EDC). […] Aliquots (10 to 40 μl) were injected onto the chip and immobilized by the amine coupling method. Excessive activated groups were blocked by injecting 100 μl of ethanolamine, pH 8.5. Non-covalently bound substances were washed out by injecting 10 μl each of 50% aqueous DMSO solution and 50% PrOH/10% DMSO/50 mM HCl.
The structural formulae of OCT and ED-71 are represented by formulae (2) and (3), respectively. [drawing 2]

[2] = BIACORE (SPR) binding activity assay of MBP-ERLBD and ERLBD to immobilized 7α-(9-aminononyl)estradiol; details: analyte 20 μg/ml, 10 μl injection; single values of duplicate (n = 2)
Experimental: Immobilization of 7α-(9-aminononyl)estradiol on the Sensor Chip CM5 (Pharmacia) was carried out as follows. HBS was used as a continuous flow buffer, and the flow rate was set at 5 μl/min. Carboxyl groups of carboxymethyl dextran on the Sensor Chip CM5 were activated by injecting 100 μl of 0.05 M N-hydroxysuccinimide (NHS)/0.2 M N-ethyl-N′-(3-dimethyl aminopropyl)-carbodiimide (EDC). 7α-(9-aminononyl)estradiol (approx. 7 mg/ml in benzene, approx. 4.5 mg/ml in 2-PrOH) was first diluted 10-fold in EtOH, further diluted 10-fold using 10 mM Na-acetate buffer, pH 4.0 or pH 4.5. Aliquots (10 to 50 μl) were injected onto the chip and immobilized by the amine coupling method. Then, excessive activated groups were blocked by injecting 100 μl of ethanolamine, pH 8.5. Further, non-covalently bound substances were washed out by 10 μl of 0.1 M Gly-HCl buffer, pH 2.5 and 10 mM HCl.
The reaction principle was illustrated in FIG. 2. MBP-ERLBD (20 μg/ml, 10 μl) or ERLBD (20 μg/ml, 10 μl) which were prepared by the above-described method were injected onto the chip to assay their binding activities to the immobilized 7α-(9-aminononyl)estradiol. Regeneration and washing of sensor chips were performed by injecting 10 μl of 7% propanol/50 mM HCl.
For the purpose of measuring the reproducibility and lot-to-lot variations of the binding activity assay, the binding activity assay was performed using different lots of MBP-ERLBD and ERLBD preparations to compare assay values in duplicate. The binding levels of MBP-ERLBD (Lot #90) (20 μg/ml, 10 μl) were 2124.9 and 2048.9 RU, indicating a high reproducibility (% CV=2.6%) (Table 1). Highly reproducible data were also obtained for ERLBD (Lots. #110, #111, #112, and #113) (20 μg/ml, 10 μl each), as shown in Table 1. […] The results also indicate that binding activities can be accurately compared lot-to-lot variations, and that this method may be applied to the product quality control, etc. This method has also enabled easily monitoring active fractions in the purification process of ERLBD, leading to shortening of its preparation time. Results of examination of the reproducibility of the binding activity assay and the comparison thereof among sample lots are summarized in Table 1.
Using MBP-ERLBD (Lot #90) and ERLBD (Lots. #110, #111, #112, and #113) as the binding molecule, the binding activity was assayed in duplicate. RU is the unit of surface plasmon resonance intensity. % CV represents the dispersion in duplicate, indicating the larger the value, the greater the dispersion.

[3] = Conventional RI method binding activity assay using labeled oestradiol; details: 100% = [6,7-3H]oestradiol bound to all the ERLBD added, single replicate values
Excerpt: FIG. 5 schematically illustrates a conventional binding assay using a ligand labeled with radioisotope (RI). ^3H-ligand stands for [6,7-^3H]estradiol, MBP-LBD for MBP-ERLBD, and LBD for ERLBD After the ligand and the binding molecule are mixed and allowed to stand at room temperature for 6 hr, the resulting mixture is subjected to the Bound/Free separation procedure. The amount of [6,7-^3H]estradiol bound to MBP-ERLBD or ERLBD is detected with a scintilator.
The binding activity of [6,7-^3H]oestradiol (Amersham Pharmacia Biotech) to a full-length human estrogen receptor-α, ERLBD, and MBP-ERLBD was assayed according to a conventional method using a ligand labeled with radioisotope (RI) (Sasson, S. and Notides, A. C. (1988) Mol. Endcrinol., Vol. 2, No. 4, p307-312). The reaction is schematically illustrated in FIG. 5. The RI value obtained when [6,7-^3H]oestradiol bound to all the ERLBD added to the assay system was taken as 100%, and the relative binding activity was calculated. A full-length human estrogen receptor-α and MBP-ERLBD (lot #87 and #90) were used as the binding molecule. […] The method of the present invention uses proteins as the binding molecule, and the reaction time is thus short, so that the binding activity can be measured with a good reproducibility without causing a decrease in the binding activity.

Row | Molecule | inhibitory activity compared with 1,25(OH)2 vitamin D3 (in words) [1] | IC50 [1] | Response [RU], binding level to immobilized 7α-(9-aminononyl)estradiol [2] | Relative activity (%), binding of [6,7-3H]oestradiol [3]
1 | C=C1/C(=C\C=C2/CCC[C@]3(C)[C@@H]([C@H](C)CCCC(C)(C)O)CC[C@@H]23)C[C@@H](O)[C@@H](OCCCO)[C@@H]1O [ED-71, 2β-(3-Hydroxypropoxy)-1α,25-dihydroxyvitamin D3] | almost the same inhibitory activities | 0.5 µM | – | –
2 | C=C1/C(=C\C=C2/CCC[C@@]3(C)C2CC[C@@H]3[C@H](C)CCCC(C)(O)CCCCCCCCCCN)C[C@@H](O)C[C@@H]1O (stereo partly drawn) [ED-533, (1α,3β,5Z,7E)-25-(10-aminodecanyl)-27-nor-9,10-secocholesta-5,7,10(19)-triene-1,3,25-triol] | almost the same inhibitory activities | 0.52 µM | – | –
3 | C=C1/C(=C\C=C2/CCC[C@]3(C)[C@@H]([C@H](C)OCCC(C)(C)O)CC[C@@H]23)C[C@@H](O)C[C@@H]1O [OCT, 1α,25-dihydroxy-22-oxavitamin D3] | almost the same inhibitory activities | 0.11 µM | – | –
4 | B1 | – | – | about 2000 RU | about 10%
5 | B2 | – | – | 1032.0 RU and 990.3 RU | –
6 | B3 | – | – | 1255.7 RU and 1203.9 RU | –
7 | B4 | – | – | 1613.7 RU and 1597.3 RU | –
8 | B5 | – | – | 1825.8 RU and 1815.0 RU | –
